From the supplement of paper PMC10307832

Legend:
Experiment in all cases: relative viability (nuclei count vs DMSO), 5 days (fraction); higher = more cells survive
ABC-1 = test system: ABC-1
Method in brief: (§1)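 Cells from lung cancer lines were seeded into 1536-well plates and, one day later, dosed by pin tool. Treatments were either a single drug or a fixed dose of an anchor drug with five library-drug doses (not always all listed) in √10 steps. After 5 days, nuclei were stained in a one-step fixation (final 0.05% Triton X-100, 1% formaldehyde, 1 ug/ml Hoechst) and counted on 4× images, and relative viability is the treated-to-vehicle nuclei ratio, as the median of duplicate plates.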

ChaGo-K-1 = test system: ChaGo-K-1
Method in brief: as §1

HCC-44 = test system: HCC-44
Method in brief: as §1

HCC-827 = test system: HCC-827
Method in brief: as §1

LCLC-103H = test system: LCLC-103H
Method in brief: as §1

LU99A = test system: LU99A
Method in brief: as §1

LXF-289 = test system: LXF-289
Method in brief: as §1

NCI-H1395 = test system: NCI-H1395
Method in brief: as §1

NCI-H1666 = test system: NCI-H1666
Method in brief: as §1

NCI-H1755 = test system: NCI-H1755
Method in brief: as §1

NCI-H1792 = test system: NCI-H1792
Method in brief: as §1

NCI-H1793 = test system: NCI-H1793
Method in brief: as §1

NCI-H1944 = test system: NCI-H1944
Method in brief: as §1

NCI-H2126 = test system: NCI-H2126
Method in brief: as §1

NCI-H2347 = test system: NCI-H2347
Method in brief: as §1

NCI-H3122 = test system: NCI-H3122
Method in brief: as §1

NCI-H322M = test system: NCI-H322M
Method in brief: as §1

NCI-H358 = test system: NCI-H358
Method in brief: as §1

NCI-H520 = test system: NCI-H520
Method in brief: as §1

RERF-LC-KJ = test system: RERF-LC-KJ
Method in brief: as §1

SK-LU-1 = test system: SK-LU-1
Method in brief: as §1

Molecule `CCNC(=O)c1noc(-c2cc(C(C)C)c(O)cc2O)c1-c1ccc(CN2CCOCC2)cc1` [Luminespib] + Nc1ncn([C@H]2C[C@H](O)[C@@H](CO)O2)c(=O)n1 [Decitabine] (partner 2 µM) has a relative viability (ABC-1; first compound 0.002 µM) of 1.19, a relative viability (ABC-1; first compound 0.006325 µM) of 1.18 and a relative viability (ABC-1; first compound 0.02 µM) of 1.16. The relative viability (ABC-1; first compound 0.06325 µM) was 0.755, the relative viability (ABC-1; first compound 0.2 µM) was 0.344 and the relative viability (ChaGo-K-1; first compound 0.002 µM) was 0.544. The relative viability (ChaGo-K-1; first compound 0.006325 µM) was 0.492, the relative viability (ChaGo-K-1; first compound 0.02 µM) was 0.528 and the relative viability (ChaGo-K-1; first compound 0.06325 µM) was 0.522. The relative viability (ChaGo-K-1; first compound 0.2 µM) was 0.535, the relative viability (HCC-44; first compound 0.002 µM) was 0.969 and the relative viability (HCC-44; first compound 0.006325 µM) was 0.953. For the same molecule, the relative viability (HCC-44; first compound 0.02 µM) was 0.959, the relative viability (HCC-44; first compound 0.06325 µM) was 0.954 and the relative viability (HCC-44; first compound 0.2 µM) was 0.863. For the same molecule, the relative viability (HCC-827; first compound 0.002 µM) was 0.36, the relative viability (HCC-827; first compound 0.006325 µM) was 0.333 and the relative viability (HCC-827; first compound 0.02 µM) was 0.285. It also gave a relative viability (HCC-827; first compound 0.06325 µM) of 0.166, a relative viability (HCC-827; first compound 0.2 µM) of 0.147 and a relative viability (LCLC-103H; first compound 0.002 µM) of 0.732. For the same molecule, the relative viability (LCLC-103H; first compound 0.006325 µM) was 0.702, the relative viability (LCLC-103H; first compound 0.02 µM) was 0.721 and the relative viability (LCLC-103H; first compound 0.06325 µM) was 0.74. For the same molecule, the relative viability (LCLC-103H; first compound 0.2 µM) was 0.691, the relative viability (LU99A; first compound 0.002 µM) was 0.953 and the relative viability (LU99A; first compound 0.006325 µM) was 0.781. For the same molecule, the relative viability (LU99A; first compound 0.02 µM) was 0.5, the relative viability (LU99A; first compound 0.06325 µM) was 0.855 and the relative viability (LU99A; first compound 0.2 µM) was 0.879. The relative viability (LXF-289; first compound 0.002 µM) was 0.397, the relative viability (LXF-289; first compound 0.006325 µM) was 0.354 and the relative viability (LXF-289; first compound 0.02 µM) was 0.424. The relative viability (LXF-289; first compound 0.06325 µM) was 0.392, the relative viability (LXF-289; first compound 0.2 µM) was 0.367 and the relative viability (NCI-H1395; first compound 0.002 µM) was 0.745. For the same molecule, the relative viability (NCI-H1395; first compound 0.006325 µM) was 0.694, the relative viability (NCI-H1395; first compound 0.02 µM) was 0.634 and the relative viability (NCI-H1395; first compound 0.06325 µM) was 0.382. It also gave a relative viability (NCI-H1395; first compound 0.2 µM) of 0.357, a relative viability (NCI-H1666; first compound 0.002 µM) of 0.701 and a relative viability (NCI-H1666; first compound 0.006325 µM) of 0.676. The relative viability (NCI-H1666; first compound 0.02 µM) was 0.715, the relative viability (NCI-H1666; first compound 0.06325 µM) was 0.71 and the relative viability (NCI-H1666; first compound 0.2 µM) was 0.544. For the same molecule, the relative viability (NCI-H1755; first compound 0.002 µM) was 0.673, the relative viability (NCI-H1755; first compound 0.006325 µM) was 0.691 and the relative viability (NCI-H1755; first compound 0.02 µM) was 0.696. The relative viability (NCI-H1755; first compound 0.06325 µM) was 0.719, the relative viability (NCI-H1755; first compound 0.2 µM) was 0.649 and the relative viability (NCI-H1792; first compound 0.002 µM) was 0.521. It also gave a relative viability (NCI-H1792; first compound 0.006325 µM) of 0.458, a relative viability (NCI-H1792; first compound 0.02 µM) of 0.429 and a relative viability (NCI-H1792; first compound 0.06325 µM) of 0.078. For the same molecule, the relative viability (NCI-H1792; first compound 0.2 µM) was 0.0722, the relative viability (NCI-H1793; first compound 0.002 µM) was 0.499 and the relative viability (NCI-H1793; first compound 0.006325 µM) was 0.457. The relative viability (NCI-H1793; first compound 0.02 µM) was 0.369, the relative viability (NCI-H1793; first compound 0.06325 µM) was 0.151 and the relative viability (NCI-H1793; first compound 0.2 µM) was 0.185. For the same molecule, the relative viability (NCI-H1944; first compound 0.002 µM) was 0.493, the relative viability (NCI-H1944; first compound 0.006325 µM) was 0.454 and the relative viability (NCI-H1944; first compound 0.02 µM) was 0.405. For the same molecule, the relative viability (NCI-H1944; first compound 0.06325 µM) was 0.405, the relative viability (NCI-H1944; first compound 0.2 µM) was 0.415 and the relative viability (NCI-H2126; first compound 0.002 µM) was 0.573. It also gave a relative viability (NCI-H2126; first compound 0.006325 µM) of 0.587, a relative viability (NCI-H2126; first compound 0.06325 µM) of 0.593 and a relative viability (NCI-H2126; first compound 0.2 µM) of 0.507. The relative viability (NCI-H2347; first compound 0.002 µM) was 0.603, the relative viability (NCI-H2347; first compound 0.006325 µM) was 0.567 and the relative viability (NCI-H2347; first compound 0.02 µM) was 0.656. For the same molecule, the relative viability (NCI-H2347; first compound 0.06325 µM) was 0.431, the relative viability (NCI-H2347; first compound 0.2 µM) was 0.373 and the relative viability (NCI-H3122; first compound 0.002 µM) was 0.474. The relative viability (NCI-H3122; first compound 0.006325 µM) was 0.413, the relative viability (NCI-H3122; first compound 0.02 µM) was 0.29 and the relative viability (NCI-H3122; first compound 0.06325 µM) was 0.418. The relative viability (NCI-H3122; first compound 0.2 µM) was 0.403, the relative viability (NCI-H322M; first compound 0.002 µM) was 0.681 and the relative viability (NCI-H322M; first compound 0.006325 µM) was 0.624. For the same molecule, the relative viability (NCI-H322M; first compound 0.02 µM) was 0.711, the relative viability (NCI-H322M; first compound 0.06325 µM) was 0.509 and the relative viability (NCI-H322M; first compound 0.2 µM) was 0.499. For the same molecule, the relative viability (NCI-H358; first compound 0.002 µM) was 0.217, the relative viability (NCI-H358; first compound 0.006325 µM) was 0.217 and the relative viability (NCI-H358; first compound 0.02 µM) was 0.178. It also gave a relative viability (NCI-H358; first compound 0.06325 µM) of 0.0688, a relative viability (NCI-H358; first compound 0.2 µM) of 0.0584 and a relative viability (NCI-H520; first compound 0.002 µM) of 0.533. It also gave a relative viability (NCI-H520; first compound 0.006325 µM) of 0.506, a relative viability (NCI-H520; first compound 0.02 µM) of 0.317 and a relative viability (NCI-H520; first compound 0.06325 µM) of 0.167. The relative viability (NCI-H520; first compound 0.2 µM) was 0.152, the relative viability (RERF-LC-KJ; first compound 0.002 µM) was 0.759 and the relative viability (RERF-LC-KJ; first compound 0.006325 µM) was 0.669. It also gave a relative viability (RERF-LC-KJ; first compound 0.02 µM) of 0.417, a relative viability (RERF-LC-KJ; first compound 0.06325 µM) of 0.225 and a relative viability (RERF-LC-KJ; first compound 0.2 µM) of 0.198. For the same molecule, the relative viability (SK-LU-1; first compound 0.002 µM) was 0.725, the relative viability (SK-LU-1; first compound 0.006325 µM) was 0.462 and the relative viability (SK-LU-1; first compound 0.02 µM) was 0.547. The relative viability (SK-LU-1; first compound 0.06325 µM) was 0.198 and the relative viability (SK-LU-1; first compound 0.2 µM) was 0.216.
